Measurements as given in ChEMBL document CHEMBL2346565, “Syntheses and biological evaluation of 1-heteroaryl-2-aryl-1H-benzimidazole derivatives as c-Jun N-terminal kinase inhibitors with neuroprotective effects” (Bioorg Med Chem, 2013).
Blank lines part the entries; values can stand above or below the molecule they belong to.

Columns and labels:
[1] = molecular target: T1, Mitogen-activated protein kinase 10 (Homo sapiens, UniProt P53779); assay: Binding affinity to N-terminal His6X-tagged human recombinant JNK3 catalytic domain expressed in Escherichia coli BL21 (DE3) by surface plasmon resonance analysis
T1 sequence (P53779 whole entry, the tested form may be a part): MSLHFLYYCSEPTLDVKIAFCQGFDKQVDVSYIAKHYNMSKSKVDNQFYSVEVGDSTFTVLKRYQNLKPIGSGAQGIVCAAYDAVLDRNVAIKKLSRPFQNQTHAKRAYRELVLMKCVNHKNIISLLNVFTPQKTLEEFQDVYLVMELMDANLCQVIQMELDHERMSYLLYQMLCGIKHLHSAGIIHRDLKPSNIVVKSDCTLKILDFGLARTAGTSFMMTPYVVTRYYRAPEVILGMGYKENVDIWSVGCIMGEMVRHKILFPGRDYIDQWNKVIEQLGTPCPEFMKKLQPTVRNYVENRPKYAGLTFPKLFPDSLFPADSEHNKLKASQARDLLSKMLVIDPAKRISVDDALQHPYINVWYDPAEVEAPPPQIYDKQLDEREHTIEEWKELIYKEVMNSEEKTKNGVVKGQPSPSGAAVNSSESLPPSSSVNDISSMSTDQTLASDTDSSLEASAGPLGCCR

[2] = molecular target: T1, Mitogen-activated protein kinase 10; assay: Inhibition of JNK3 in human PBMCs assessed as decrease in LPS-induced TNFalpha mRNA level after 4 hrs by real-time reverse transcription-PCR analysis
[3] = molecular target: T1, Mitogen-activated protein kinase 10; assay: Competitive inhibition of JNK3 (unknown origin) in presence of ATP
[4] = molecular target: Mitogen-activated protein kinase 9 (Homo sapiens, UniProt P45984); assay: Competitive inhibition of JNK2 (unknown origin) in presence of ATP
Mitogen-activated protein kinase 9, sequence (P45984 whole entry): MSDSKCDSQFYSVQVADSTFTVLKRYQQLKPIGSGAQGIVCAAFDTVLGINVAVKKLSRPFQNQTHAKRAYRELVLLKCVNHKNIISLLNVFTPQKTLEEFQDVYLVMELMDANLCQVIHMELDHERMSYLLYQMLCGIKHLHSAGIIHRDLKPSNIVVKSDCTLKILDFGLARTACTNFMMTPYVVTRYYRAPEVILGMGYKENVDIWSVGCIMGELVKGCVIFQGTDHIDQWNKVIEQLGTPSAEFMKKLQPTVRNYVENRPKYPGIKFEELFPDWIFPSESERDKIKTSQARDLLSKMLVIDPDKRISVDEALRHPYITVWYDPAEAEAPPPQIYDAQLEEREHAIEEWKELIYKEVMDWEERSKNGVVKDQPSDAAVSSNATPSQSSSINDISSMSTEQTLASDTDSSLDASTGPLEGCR

- Kd [1]: 18.1 µM
Compound: COc1ccc2c(c1)nc(-c1ccc(C)c(Cl)c1)n2-c1ccnc(NC2CCCCC2)c1

- IC50 [2]: 10 µM
- inhibition [2]: Dose-dependent effect
Compound: Oc1c2ccccc2c2c3c(cccc13)N=N2 [SP-600125]

- IC50 [3]: 1.86 µM
- IC50 [4]: 2.18 µM
Compound: Oc1cccc(-c2nc3ccccc3n2-c2ccnc(N[C@@H]3CCCNC3)c2)c1
